Measurements from PMC7824787, “Design, Synthesis and In Vitro Investigation of Novel Basic Celastrol Carboxamides as Bio-Inspired Leishmanicidal Agents Endowed with Inhibitory Activity against Leishmania Hsp90” (Biomolecules, 2021).
Read-outs that look alike come from different tables or passages of the source.

How the values were obtained:
LbHsp90 = LbHsp90 (Leishmania braziliensis, UniProt A4HL70); assay: In vitro inhibition of the ATPase activity of LbHsp90 (Malachite Green Phosphate Assay); assay type: biochemical; conditions: 7 μM LbHsp90, 27 °C, 60 min
Text: To evaluate in vitro the modulatory activity of CE, PR and CE caboxamides, a full-length recombinant Hsp90 from L. braziliensis (LbHsp90) was produced in E. coli BL21 DE3 harboring the pET28a_LbHsp90 coding for the C-terminal His-tagged target chaperone (genbank number: XP_001567804.1, full sequence is reported in Appendix B). Pratically, the plasmid pET28a_LbHsp90, kindly donated by professor J.C. Borges, was transformed in E. coli BL21 DE3 using the TransformAid Bacterial Transformation Kit (Thermo Fisher, Waltham, MA, USA). Subsequently, the obtained transformants were grown overnight in LB medium containing 30 μg mL^−1 kanamycin (LBkan30) and then inoculated in 1 L SB kan30 medium (Yeast extract 30 g L^−1, Tryptone 20 g L^−1, NaCl 10 g L^−1) at 37 °C and 220 rpm. When the OD600 reached 0.5–1, gene expression was induced by the addition of 2 mL of 1 M IPTG solution in water and the culture was shifted at 30 °C for 24 h. After cell harvesting by centrifugation (5000 rpm for 30 min), the cell pellet was resuspended in 20 mL of wash buffer (20 mM HEPES buffer, pH 7.0, 500 mM NaCl, 20 mM imidazole) and recombinant E. coli BL21DE3 cells were disrupted by ultrasonication. LbHsp90 was subsequently purified using a Nickel Sepharose 6 Fast Flow agarose resin (Ni-NTA) (GE Healthcare, Milan, Italy) as follows. Soluble protein fraction was separated from cell debris by centrifugation (10,000 rpm for 30min) after cell ultrasonication, and clear lysates were incubated with the Ni-NTA resin for 90 min at 4 °C under mild shaking and loaded onto a glass column (10 × 110 mm). The resin was then washed with 10mL of wash buffer and His-tagged LbHsp90 was eluted using a 3 step gradient (10 mL washing buffer containing 100, 200, and 300 mM imidazole, respectively) and dialyzed against 20 mM HEPES buffer (20 mM, pH 7.5), at 4 °C overnight. The protein content was measured using the Bio-Rad Protein Assay (Hercules, CA, USA) according to the Bradford method and the protein purity was verified by SDS-PAGE analysis (10% T, 2.6% C). It is worth noting that to avoid interferences with the assays described below, proteins were purified and conserved in HEPES buffer (20 mM, pH 7.5) in place of the standard PB-buffer. Reported data are the mean of two experiments run in duplicate.
Modulatory activity toward the ATPase cycle of LbHsp90 was determined using a Malachite Green Phosphate Assay Kit (Catalog Number MAK307, Sigma-Aldrich®, St. Louis, MO, USA). Analyses were run in a 96-well plate directly following the quantitative formation of a green complex between Malachite Green, molybdate, and free orthophosphate (Pi) produced by ATP hydrolysis catalyzed by the chaperone. Color formation from the reaction was measured on a plate reader at 620 nm. Briefly, the IC50 of CE and its derivatives were extrapolated from a set of dose-response curves obtained by calculating the amount of Pi produced by LbHsp90 in the presence of different compounds concentrations.
Reactions were run in HEPES buffer (20 mM, pH 7.5) containing 3 mM MgCl2 and 50 mM KCl in the presence of different compounds concentrations ([…]), LbHsp90 (7 μM) and ATP (25 mM) at 27 °C for 60 min. OD620 was measured 30 min after Malachite Green reactants addition.
LbHsp90 native activity was measured by conducting the reaction in the presence of just LbHsp90 and ATP and extrapolating the concentration of Pi obtained.
Three sets of control experiments, (1) ATP background hydrolysis, (2) compounds-related interferences and (3) protein-related background coloration, were run as follow: • (1) ATP (25 mM) incubated at 27 °C for 60 min • (2) Compounds (different concentrations) incubated with ATP (25 mM) at 27 °C for 60 min • (3) LbHsp90 (7 μM) at 27 °C for 60 min
The in vitro performances of CE, PR and the carboxamides 1–11 (Figure 4) as potential inhibitors of the Leishmania braziliensis Hsp90 were investigated using Sigma-Aldrich® Malachite Green Phosphate Assay Kit. […]

[1] = test system: L. infantum promastigotes; assay: Antileishmanial activity on L. infantum promastigotes (MTT); assay type: cell-based
L. infantum amastigotes = assay: Antileishmanial activity on intramacrophage amastigotes of L. infantum; assay type: cell-based, Leishmania infantum; conditions: Leishmania infantum; infected THP-1 macrophages, 72 h
Method: Cell monolayers were then washed and incubated in the presence of test compounds for 72 h. Slides were fixed with methanol and stained with Giemsa. The percentage of infected macrophages in treated and non-treated cells was determined by light microscopy.

[2] = Leishmania infantum, 72 h, 23 °C, MTT, read-out: Leishmania Promastigotes IC50, L. infantum
[3] = 72 h, 23 °C, MTT; read-out: Leishmania Promastigotes IC50, L. infantum

Sequence of LbHsp90 (A4HL70 entry or part of it): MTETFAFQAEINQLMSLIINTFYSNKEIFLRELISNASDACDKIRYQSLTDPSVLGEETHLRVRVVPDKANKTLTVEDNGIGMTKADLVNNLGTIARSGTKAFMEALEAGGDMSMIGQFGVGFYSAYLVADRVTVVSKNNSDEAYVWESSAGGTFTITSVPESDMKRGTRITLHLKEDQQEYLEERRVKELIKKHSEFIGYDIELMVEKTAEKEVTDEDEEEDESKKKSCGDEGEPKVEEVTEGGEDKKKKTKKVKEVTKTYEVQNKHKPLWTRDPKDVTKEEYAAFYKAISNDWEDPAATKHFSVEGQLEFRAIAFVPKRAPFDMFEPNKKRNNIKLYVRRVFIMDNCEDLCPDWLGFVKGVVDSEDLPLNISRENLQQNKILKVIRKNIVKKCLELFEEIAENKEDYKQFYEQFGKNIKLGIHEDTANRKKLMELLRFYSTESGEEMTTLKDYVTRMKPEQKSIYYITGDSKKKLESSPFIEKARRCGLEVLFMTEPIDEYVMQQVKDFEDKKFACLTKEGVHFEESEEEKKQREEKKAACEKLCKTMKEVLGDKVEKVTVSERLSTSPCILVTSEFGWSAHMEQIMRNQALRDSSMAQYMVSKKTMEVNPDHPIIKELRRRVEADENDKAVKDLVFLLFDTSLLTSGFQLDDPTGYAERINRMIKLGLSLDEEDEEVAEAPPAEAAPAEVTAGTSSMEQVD

IC50 (LbHsp90)	IC50 [1, 2]	melting point	IC50 (L. infantum amastigotes)	IC50 [1, 3]	SMILES	IC50 ([1]; Leishmania infantum; 72 h, 23 °C, MTT; read-out: Leishmania Promastigotes IC50, L. infantum)
65000 ± 4000 nM	90 ± 30 nM	165.7 to 167.9 °C	660 ± 60 nM		CC1=C(O)C(=O)C=C2C1=CC=C1[C@@]2(C)CC[C@@]2(C)[C@@H]3C[C@](C)(C(=O)NCCNc4ccnc5cc(Cl)ccc45)CC[C@]3(C)CC[C@]12C [compound 6, (2R,4aS,6aS,12bR,14aS,14bR)-N-(2-((7-chloroquinolin-4-yl)amino)ethyl)-10-hydroxy-2,4a,6a,9,12b,14a-hexamethyl-11-oxo-1,2,3,4,4a,5,6,6a,11,12b,13,14,14a,14b-tetradecahydropicene-2-carboxamide]	
> 150000 nM	2000 to 4000 nM			2310 ± 280 nM	CC1=C(O)C(=O)C=C2C1=CC=C1[C@@]2(C)CC[C@@]2(C)[C@@H]3C[C@](C)(C(=O)NCCSS(C)(=O)=O)CC[C@]3(C)CC[C@]12C [compound 9, S-(2-((2R,4aS,6aS,12bR,14aS,14bR)-10-hydroxy-2,4a,6a,9,12b,14a-hexamethyl-11-oxo-1,2,3,4,4a,5,6,6a,11,12b,13,14,14a,14b-tetradecahydropicene-2-carboxamido)ethyl) methanesulfonothioate]	

Continued, compound first:

SMILES	IC50 (LbHsp90)	IC50 [1, 2]	melting point	IC50 (L. infantum amastigotes)	IC50 [1, 3]	IC50 ([1]; Leishmania infantum; 72 h, 23 °C, MTT; read-out: Leishmania Promastigotes IC50, L. infantum)
CC1=C(O)C(=O)C=C2C1=CC=C1[C@@]2(C)CC[C@@]2(C)[C@@H]3C[C@](C)(C(=O)O)CC[C@]3(C)CC[C@]12C [CE, celastrol]	201000 ± 10000 nM					210 ± 70 nM
CC1=C(O)C(=O)C=C2C1=CC=C1[C@@]2(C)CC[C@@]2(C)[C@@H]3C[C@](C)(C(=O)NCC45CCCN4CCC5)CC[C@]3(C)CC[C@]12C [compound 5, (2R,4aS,6aS,12bR,14aS,14bR)-N-((hexahydro-1H-pyrrolizin-7a-yl)methyl)-10-hydroxy-2,4a,6a,9,12b,14a-hexamethyl-11-oxo-1,2,3,4,4a,5,6,6a,11,12b,13,14,14a,14b-tetradecahydropicene-2-carboxamide]	20000 ± 2000 nM	120 ± 20 nM	250.8 to 254.7 °C	520 ± 280 nM		
CC1=C(O)C(=O)C=C2C1=CC=C1[C@@]2(C)CC[C@@]2(C)[C@@H]3C[C@](C)(C(=O)NCCN4CCCC4)CC[C@]3(C)CC[C@]12C [compound 3, (2R,4aS,6aS,12bR,14aS,14bR)-10-hydroxy-2,4a,6a,9,12b,14a-hexamethyl-11-oxo-N-(2-(pyrrolidin-1-yl)ethyl)-1,2,3,4,4a,5,6,6a,11,12b,13,14,14a,14b-tetradecahydropicene-2-carboxamide]	81000 ± 1000 nM	< 100 nM	135.6 to 138 °C	130 ± 90 nM	60 ± 10 nM	
CC1=C(O)C(=O)C=C2C1=CC=C1[C@@]2(C)CC[C@@]2(C)[C@@H]3C[C@](C)(C(=O)NCCN4CCCCC4)CC[C@]3(C)CC[C@]12C [compound 1, (2R,4aS,6aS,12bR,14aS,14bR)-10-hydroxy-2,4a,6a,9,12b,14a-hexamethyl-11-oxo-N-(2-(piperidin-1-yl)ethyl)-1,2,3,4,4a,5,6,6a,11,12b,13,14,14a,14b-tetradecahydropicene-2-carboxamide]	83000 ± 2000 nM	60 ± 20 nM	137 to 138.6 °C	190 ± 110 nM		
